Here are results for 37 compounds from patent US20050197350A1, “Novel quinoline, tetrahydroquinazoline, and pyrimidine derivatives and methods of treatment related to the use thereof” (TAISHO PHARMACEUTICAL CO., LTD., priority 2003, published 2005).

The assay has as its system MCH receptors. Put plainly: MCH receptor activity class (method not given). As to conditions: class by percent of control at 10^-7 M or IC50.

Regarding `CN(C)c1cc(N[C@H]2CC[C@@H](CNC(=O)c3ccc(F)c(Cl)c3F)CC2)nc2ccccc12` [compound 189, 3-chloro-N-[(cis-4-{[4-(dimethylamino)quinolin-2-yl]amino}cyclohexyl)methy]-2,4-difluorobenzamide], the class (MCH receptor) is reported as 3 (Class 3 The value of percent of control at 10^−7 M was more than 60% or the value of IC50 was more than 200 nM.).
As to `CN(C)c1cc(N[C@H]2CC[C@@H](CNC(=O)CSc3ccccc3)CC2)nc2ccccc12` [compound 190], the class (MCH receptor) is 3 (Class 3 The value of percent of control at 10^−7 M was more than 60% or the value of IC50 was more than 200 nM.).
Take `CN(C)c1cc(N[C@H]2CC[C@@H](CNC(=O)c3cccc(C(F)(F)F)c3F)CC2)nc2ccccc12` [compound 191]: the class (MCH receptor) is recorded as 3 (Class 3 The value of percent of control at 10^−7 M was more than 60% or the value of IC50 was more than 200 nM.).
Take `CN(C)c1cc(N[C@H]2CC[C@@H](CNC(=O)c3cc(C(F)(F)F)ccc3F)CC2)nc2ccccc12` [compound 192]: the class (MCH receptor) is on record as 3 (Class 3 The value of percent of control at 10^−7 M was more than 60% or the value of IC50 was more than 200 nM.).
In the case of `COc1cccc(CC(=O)NC[C@H]2CC[C@@H](Nc3cc(N(C)C)c4ccccc4n3)CC2)c1` [compound 194], where the note is “MCH receptor”, the class was 3 (Class 3 The value of percent of control at 10^−7 M was more than 60% or the value of IC50 was more than 200 nM.).
`CN(C)c1cc(N[C@H]2CC[C@@H](CNC(=O)Cc3ccc(F)cc3)CC2)nc2ccccc12` [compound 195]: the class (MCH receptor) is given as 3 (Class 3 The value of percent of control at 10^−7 M was more than 60% or the value of IC50 was more than 200 nM.).
`COc1ccc(CC(=O)NC[C@H]2CC[C@@H](Nc3cc(N(C)C)c4ccccc4n3)CC2)cc1` [compound 196]: where the note is “MCH receptor”, the class is given as 3 (Class 3 The value of percent of control at 10^−7 M was more than 60% or the value of IC50 was more than 200 nM.).
Take `Cc1cc(C(=O)NC[C@H]2CC[C@@H](Nc3cc(N(C)C)c4ccccc4n3)CC2)c(C(F)(F)F)o1` [compound 197]: the class (MCH receptor) was 3 (Class 3 The value of percent of control at 10^−7 M was more than 60% or the value of IC50 was more than 200 nM.).
Still for that read-out and setting: as for `Cc1cc(C(=O)NC[C@H]2CC[C@@H](Nc3cc(N(C)C)c4ccccc4n3)CC2)c(C)o1` [compound 198, N-[(cis-4-{[4-(dimethylamino)quinolin-2-yl]amino}cyclohexyl)methyl]-2,5-dimethyl-3-furamide], the figure is 3 (Class 3 The value of percent of control at 10^−7 M was more than 60% or the value of IC50 was more than 200 nM.); as for `CCOc1ccccc1C(=O)NC[C@H]1CC[C@@H](Nc2cc(N(C)C)c3ccccc3n2)CC1` [compound 199], 3 (Class 3 The value of percent of control at 10^−7 M was more than 60% or the value of IC50 was more than 200 nM.).
With `CN(C)c1cc(N[C@H]2CC[C@@H](CNC(=O)c3ccc(F)c(Cl)c3)CC2)nc2ccccc12` [compound 200], the class (MCH receptor) is listed as 3 (Class 3 The value of percent of control at 10^−7 M was more than 60% or the value of IC50 was more than 200 nM.).
On to `Cc1ccc(C(=O)NC[C@H]2CC[C@@H](Nc3cc(N(C)C)c4ccccc4n3)CC2)cc1F` [compound 201, N-[(cis-4-{[4-(dimethylamino)quinolin-2-yl]amino}cyclohexyl)methyl]-3-fluoro-4-methylbenzamide], for which the class (MCH receptor) is 3 (Class 3 The value of percent of control at 10^−7 M was more than 60% or the value of IC50 was more than 200 nM.).
Turning to `CN(C)c1cc(N[C@H]2CC[C@@H](CNC(=O)CC3CCCC3)CC2)nc2ccccc12` [compound 202], the class (MCH receptor) is given as 3 (Class 3 The value of percent of control at 10^−7 M was more than 60% or the value of IC50 was more than 200 nM.).
As to `COc1cc(OC)cc(C(=O)NC[C@H]2CC[C@@H](Nc3cc(N(C)C)c4ccccc4n3)CC2)c1` [compound 203, N-[(cis-4-{[4-(dimethylamino)quinolin-2-yl]amino}cyclohexyl)methyl]-3,5-dimethoxybenzamide], the class (MCH receptor) is recorded as 3 (Class 3 The value of percent of control at 10^−7 M was more than 60% or the value of IC50 was more than 200 nM.).
In the case of `CN(C)c1cc(N[C@H]2CC[C@@H](CNC(=O)c3ccc(C#N)cc3)CC2)nc2ccccc12` [compound 204], the class (MCH receptor) was 3 (Class 3 The value of percent of control at 10^−7 M was more than 60% or the value of IC50 was more than 200 nM.).
In the case of `CN(C)c1cc(N[C@H]2CC[C@@H](CNC(=O)c3cc(C(F)(F)F)cc(C(F)(F)F)c3)CC2)nc2ccccc12` [compound 205, N-[(cis-4-{[4-(dimethylamino)quinolin-2-yl]amino}cyclohexyl)methyl]-3,5-bis(trifluoromethyl)benzamide], the class (MCH receptor) is 3 (Class 3 The value of percent of control at 10^−7 M was more than 60% or the value of IC50 was more than 200 nM.).
On the same count and under the same terms, as for `CN(C)c1cc(N[C@H]2CC[C@@H](CNC(=O)/C=C/c3ccc([N+](=O)[O-])cc3)CC2)nc2ccccc12` [compound 206], the figure is 2 (Class 2: The value of percent of control at 10^−7 M was from 40% to 60% or the value of IC′50 was from 50 nM to 200 nM.); as for `CN(C)c1cc(N[C@H]2CC[C@@H](CNC(=O)Cc3ccccc3Br)CC2)nc2ccccc12` [compound 207], 3 (Class 3 The value of percent of control at 10^−7 M was more than 60% or the value of IC50 was more than 200 nM.); as for `Cc1cc(C(=O)NC[C@H]2CC[C@@H](Nc3cc(N(C)C)c4ccccc4n3)CC2)ccc1F` [compound 208, N-[(cis-4-{[4-(dimethylamino)quinolin-2-yl]amino}cyclohexyl)methyl]-4-fluoro-3-methylbenzamide], 3 (Class 3 The value of percent of control at 10^−7 M was more than 60% or the value of IC50 was more than 200 nM.).
For the compound `CN(C)c1cc(N[C@H]2CC[C@@H](CNC(=O)c3ccccc3SC(F)F)CC2)nc2ccccc12` [compound 209], the class (MCH receptor) was 3 (Class 3 The value of percent of control at 10^−7 M was more than 60% or the value of IC50 was more than 200 nM.).
Regarding `CN(C)c1cc(N[C@H]2CC[C@@H](CNC(=O)c3cc(Cl)sc3Cl)CC2)nc2ccccc12` [compound 210], the class (MCH receptor) is reported as 3 (Class 3 The value of percent of control at 10^−7 M was more than 60% or the value of IC50 was more than 200 nM.).
For the compound `CCCSc1ncccc1C(=O)NC[C@H]1CC[C@@H](Nc2cc(N(C)C)c3ccccc3n2)CC1` [compound 211], under “MCH receptor”, the class is 3 (Class 3 The value of percent of control at 10^−7 M was more than 60% or the value of IC50 was more than 200 nM.).
With `CN(C)c1cc(N[C@H]2CC[C@@H](CNC(=O)c3cc(C(C)(C)C)nn3Cc3ccccc3)CC2)nc2ccccc12` [compound 212], the class (MCH receptor) was 3 (Class 3 The value of percent of control at 10^−7 M was more than 60% or the value of IC50 was more than 200 nM.).
In the case of `CN(C)c1cc(N[C@H]2CC[C@@H](CNC(=O)c3cc(C(C)(C)C)nn3C)CC2)nc2ccccc12` [compound 213], under “MCH receptor”, the class is on record as 3 (Class 3 The value of percent of control at 10^−7 M was more than 60% or the value of IC50 was more than 200 nM.).
Still for that read-out and setting: the value for `C/C(=C\c1ccccc1)C(=O)NC[C@H]1CC[C@@H](Nc2cc(N(C)C)c3ccccc3n2)CC1` [compound 214] was 3 (Class 3 The value of percent of control at 10^−7 M was more than 60% or the value of IC50 was more than 200 nM.); that for `CN(C)c1cc(N[C@H]2CC[C@@H](CNC(=O)c3cncc(Br)c3)CC2)nc2ccccc12` [compound 215] was 3 (Class 3 The value of percent of control at 10^−7 M was more than 60% or the value of IC50 was more than 200 nM.).
As for `CN(C)c1cc(N[C@H]2CC[C@@H](CNC(=O)Cc3cccc4ccccc34)CC2)nc2ccccc12` [compound 216], the class is 3 (Class 3 The value of percent of control at 10^−7 M was more than 60% or the value of IC50 was more than 200 nM.).
With `Cc1cc(C(=O)NC[C@H]2CC[C@@H](Nc3cc(N(C)C)c4ccccc4n3)CC2)nn1C(C)(C)C` [compound 217], the class was 3 (Class 3 The value of percent of control at 10^−7 M was more than 60% or the value of IC50 was more than 200 nM.).
Still for that read-out and setting: as for `CN(C)c1cc(N[C@H]2CC[C@@H](CNC(=O)c3csc4ccccc34)CC2)nc2ccccc12` [compound 218], the figure is 3 (Class 3 The value of percent of control at 10^−7 M was more than 60% or the value of IC50 was more than 200 nM.); as for `CN(C)c1cc(N[C@H]2CC[C@@H](CNC(=O)c3ccc(-c4ccccc4)cc3)CC2)nc2ccccc12` [compound 219], 3 (Class 3 The value of percent of control at 10^−7 M was more than 60% or the value of IC50 was more than 200 nM.); as for `CN(C)c1cc(N[C@H]2CC[C@@H](CNC(=O)c3ccccc3Br)CC2)nc2ccccc12` [compound 220], 3 (Class 3 The value of percent of control at 10^−7 M was more than 60% or the value of IC50 was more than 200 nM.).
On to `CN(C)c1cc(N[C@H]2CC[C@@H](CNC(=O)c3c(Cl)cccc3Cl)CC2)nc2ccccc12` [compound 221], for which the class is reported as 2 (Class 2: The value of percent of control at 10^−7 M was from 40% to 60% or the value of IC′50 was from 50 nM to 200 nM.).
Consider `CN(C)c1cc(N[C@H]2CC[C@@H](CNC(=O)c3ccccc3I)CC2)nc2ccccc12` [compound 222], for which the class was 3 (Class 3 The value of percent of control at 10^−7 M was more than 60% or the value of IC50 was more than 200 nM.).
Take `Cc1ccccc1C(=O)NC[C@H]1CC[C@@H](Nc2cc(N(C)C)c3ccccc3n2)CC1` [compound 223]: the class is on record as 3 (Class 3 The value of percent of control at 10^−7 M was more than 60% or the value of IC50 was more than 200 nM.).
As for `CN(C)c1cc(N[C@H]2CC[C@@H](CNC(=O)c3cccc(Cl)c3Cl)CC2)nc2ccccc12` [compound 224], the class is listed as 3 (Class 3 The value of percent of control at 10^−7 M was more than 60% or the value of IC50 was more than 200 nM.).
Still for that read-out and setting: as for `CN(C)c1cc(N[C@H]2CC[C@@H](CNC(=O)c3cc(F)ccc3Cl)CC2)nc2ccccc12` [compound 225], the figure is 3 (Class 3 The value of percent of control at 10^−7 M was more than 60% or the value of IC50 was more than 200 nM.); as for `CN(C)c1cc(N[C@H]2CC[C@@H](CNC(=O)c3cccc4c3-c3ccccc3C4=O)CC2)nc2ccccc12` [compound 226], 3 (Class 3 The value of percent of control at 10^−7 M was more than 60% or the value of IC50 was more than 200 nM.).
